According to PubChem BioAssay (NCI):
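Where inhibition never reached the appropriate level, the endpoint shown equals the highest concentration tested. Otherwise, values were interpolated linearly from a five-concentration, 48-hour dose response in 96-well plates. The concentration for 50% growth inhibition is given as GI50. TGI is the concentration that stops growth completely.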

What was measured:
Experiment in all cases: growth of human tumour cells (NCI), 48 h
[1] = test system: HCT-116 colon
[2] = test system: RXF 393 renal
[3] = test system: SK-MEL-5 melanoma
[4] = test system: HT29 colon
[5] = test system: LOX IMVI melanoma
[6] = test system: SF-539 CNS
[7] = test system: SNB-75 CNS
[8] = test system: HS 578T breast
[9] = test system: OVCAR-5 ovarian
[10] = test system: SF-268 CNS
[11] = test system: HOP-62 NSCLC
[12] = test system: BT-549 breast
[13] = test system: MCF7 breast
[14] = test system: MOLT-4 leukemia
[15] = test system: COLO 205 colon
[16] = test system: MDA-MB-435
[17] = test system: IGROV1 ovarian
[18] = test system: CCRF-CEM leukemia
[19] = test system: DU-145 prostate
[20] = test system: UO-31 renal
[21] = test system: HCT-15 colon
[22] = test system: NCI-H460 lung
[23] = test system: SK-OV-3 ovarian
[24] = test system: NCI/ADR-RES ovarian
[25] = test system: U251 CNS
[26] = test system: MDA-MB-468 breast
[27] = test system: SK-MEL-2 melanoma
[28] = test system: NCI-H522 lung
[29] = test system: SNB-19 CNS
[30] = test system: KM12 colon
[31] = test system: SN12C renal
[32] = test system: SF-295 CNS
[33] = test system: HL-60(TB) leukemia
[34] = test system: A549 NSCLC
[35] = test system: MALME-3M melanoma
[36] = test system: OVCAR-8 ovarian
[37] = test system: 786-0 renal
[38] = test system: K-562 leukemia
[39] = test system: ACHN renal
[40] = test system: T-47D breast
[41] = test system: OVCAR-3 ovarian
[42] = test system: SR leukemia
[43] = test system: PC-3 prostate
[44] = test system: M14 melanoma
[45] = test system: EKVX NSCLC
[46] = test system: OVCAR-4 ovarian
[47] = test system: HOP-92 NSCLC
[48] = test system: TK-10 renal
[49] = test system: NCI-H226 lung
[50] = test system: A498 renal
[51] = test system: CAKI-1 renal
[52] = test system: UACC-257 melanoma
[53] = test system: UACC-62 melanoma
[54] = test system: NCI-H23 lung
[55] = test system: HCC-2998 colon
[56] = test system: SK-MEL-28 melanoma
[57] = test system: MDA-MB-231 breast
[58] = test system: RPMI-8226 leukemia
[59] = test system: SW-620 colon

Question: How did the GI50 [1] turn out when `N#Cc1c(NC(=O)c2ccc(C(F)(F)F)c(Cl)c2)sc2c1CCC(=O)C2` was run?
Answer: 371 nM

Question: What about the TGI [1] of the same compound?
Answer: 1430 nM

Question: And the GI50 [2]?
Answer: 618 nM

Question: What about the TGI [2] of the same compound?
Answer: 1950 nM

Question: What about the GI50 [3] of the same compound?
Answer: 1580 nM

Question: What about the TGI [3] of the same compound?
Answer: 2970 nM

Question: What about the GI50 [4] of the same compound?
Answer: 943 nM

Question: And the TGI [4]?
Answer: 3530 nM

Question: And the GI50 [5]?
Answer: 561 nM

Question: And the TGI [5]?
Answer: 2040 nM

Question: What about the GI50 [6] of the same compound?
Answer: 514 nM

Question: What about the TGI [6] of the same compound?
Answer: 1650 nM

Question: What about the GI50 [7] of the same compound?
Answer: 1350 nM

Question: What about the TGI [7] of the same compound?
Answer: 3380 nM

Question: What about the GI50 [8] of the same compound?
Answer: 891 nM

Question: What about the TGI [8] of the same compound?
Answer: 3490 nM

Question: And the GI50 [9]?
Answer: 1830 nM

Question: And the TGI [9]?
Answer: 3870 nM

Question: What about the GI50 [10] of the same compound?
Answer: 1780 nM

Question: And the TGI [10]?
Answer: 5370 nM

Question: And the GI50 [11]?
Answer: 2160 nM

Question: And the TGI [11]?
Answer: 6050 nM

Question: What about the GI50 [12] of the same compound?
Answer: 365 nM

Question: And the TGI [12]?
Answer: 1410 nM

Question: What about the GI50 [13] of the same compound?
Answer: 1470 nM

Question: And the TGI [13]?
Answer: 7500 nM

Question: And the GI50 [14]?
Answer: 568 nM

Question: What about the TGI [14] of the same compound?
Answer: 6260 nM

Question: And the GI50 [15]?
Answer: 1170 nM

Question: And the TGI [15]?
Answer: 2610 nM

Question: And the GI50 [16]?
Answer: 1600 nM

Question: What about the TGI [16] of the same compound?
Answer: 3080 nM

Question: What about the GI50 [17] of the same compound?
Answer: 1520 nM

Question: What about the TGI [17] of the same compound?
Answer: 3070 nM

Question: And the GI50 [18]?
Answer: 334 nM

Question: What about the TGI [18] of the same compound?
Answer: 3530 nM

Question: What about the GI50 [19] of the same compound?
Answer: 3930 nM

Question: And the TGI [19]?
Answer: 18300 nM

Question: And the GI50 [20]?
Answer: 479 nM

Question: And the TGI [20]?
Answer: 1710 nM

Question: And the GI50 [21]?
Answer: 963 nM

Question: What about the TGI [21] of the same compound?
Answer: 2860 nM

Question: And the GI50 [22]?
Answer: 2720 nM

Question: And the TGI [22]?
Answer: 8900 nM

Question: And the GI50 [23]?
Answer: 2120 nM

Question: What about the TGI [23] of the same compound?
Answer: 5920 nM

Question: What about the GI50 [24] of the same compound?
Answer: 1600 nM

Question: What about the TGI [24] of the same compound?
Answer: 4190 nM

Question: What about the GI50 [25] of the same compound?
Answer: 760 nM

Question: What about the TGI [25] of the same compound?
Answer: 2070 nM

Question: What about the GI50 [26] of the same compound?
Answer: 416 nM

Question: What about the TGI [26] of the same compound?
Answer: 1490 nM

Question: And the GI50 [27]?
Answer: 1940 nM

Question: What about the TGI [27] of the same compound?
Answer: 4380 nM

Question: And the GI50 [28]?
Answer: 346 nM

Question: And the TGI [28]?
Answer: 1350 nM

Question: What about the GI50 [29] of the same compound?
Answer: 1670 nM

Question: What about the TGI [29] of the same compound?
Answer: 4350 nM

Question: And the GI50 [30]?
Answer: 1140 nM

Question: And the TGI [30]?
Answer: 3530 nM

Question: And the GI50 [31]?
Answer: 923 nM

Question: And the TGI [31]?
Answer: 2740 nM

Question: And the GI50 [32]?
Answer: 1630 nM

Question: And the TGI [32]?
Answer: 3410 nM

Question: And the GI50 [33]?
Answer: 1160 nM

Question: What about the TGI [33] of the same compound?
Answer: 5390 nM

Question: And the GI50 [34]?
Answer: 2440 nM

Question: And the TGI [34]?
Answer: 7660 nM

Question: And the GI50 [35]?
Answer: 1260 nM

Question: And the TGI [35]?
Answer: 3150 nM

Question: What about the GI50 [36] of the same compound?
Answer: 1380 nM

Question: What about the TGI [36] of the same compound?
Answer: 3480 nM

Question: And the GI50 [37]?
Answer: 1850 nM

Question: And the TGI [37]?
Answer: 5530 nM

Question: What about the GI50 [38] of the same compound?
Answer: 336 nM

Question: And the TGI [38]?
Answer: 5220 nM

Question: And the GI50 [39]?
Answer: 692 nM

Question: What about the TGI [39] of the same compound?
Answer: 1860 nM

Question: And the GI50 [40]?
Answer: 599 nM

Question: What about the TGI [40] of the same compound?
Answer: 2960 nM

Question: And the GI50 [41]?
Answer: 1430 nM

Question: And the TGI [41]?
Answer: 2990 nM

Question: What about the GI50 [42] of the same compound?
Answer: 399 nM

Question: What about the TGI [42] of the same compound?
Answer: 10300 nM

Question: What about the GI50 [43] of the same compound?
Answer: 448 nM

Question: What about the TGI [43] of the same compound?
Answer: 3230 nM

Question: And the GI50 [44]?
Answer: 922 nM

Question: And the TGI [44]?
Answer: 2690 nM

Question: And the GI50 [45]?
Answer: 1900 nM

Question: What about the TGI [45] of the same compound?
Answer: 4920 nM

Question: And the GI50 [46]?
Answer: 1320 nM

Question: What about the TGI [46] of the same compound?
Answer: 2860 nM

Question: What about the GI50 [47] of the same compound?
Answer: 1190 nM

Question: And the TGI [47]?
Answer: 3240 nM

Question: And the GI50 [48]?
Answer: 2280 nM

Question: And the TGI [48]?
Answer: 7430 nM

Question: And the GI50 [49]?
Answer: 2590 nM

Question: And the TGI [49]?
Answer: 8600 nM

Question: And the GI50 [50]?
Answer: 12600 nM

Question: And the TGI [50]?
Answer: 34900 nM

Question: And the GI50 [51]?
Answer: 725 nM

Question: What about the TGI [51] of the same compound?
Answer: 2120 nM

Question: What about the GI50 [52] of the same compound?
Answer: 1700 nM

Question: What about the TGI [52] of the same compound?
Answer: 4350 nM

Question: What about the GI50 [53] of the same compound?
Answer: 1230 nM

Question: And the TGI [53]?
Answer: 2660 nM

Question: And the GI50 [54]?
Answer: 1030 nM

Question: What about the TGI [54] of the same compound?
Answer: 3010 nM

Question: And the GI50 [55]?
Answer: 1670 nM

Question: And the TGI [55]?
Answer: 3350 nM

Question: What about the GI50 [56] of the same compound?
Answer: 1080 nM

Question: What about the TGI [56] of the same compound?
Answer: 2570 nM

Question: What about the GI50 [57] of the same compound?
Answer: 1460 nM

Question: What about the TGI [57] of the same compound?
Answer: 3000 nM

Question: What about the GI50 [58] of the same compound?
Answer: 214 nM

Question: And the TGI [58]?
Answer: 736 nM

Question: And the GI50 [59]?
Answer: 400 nM

Question: And the TGI [59]?
Answer: 1790 nM
